Patent US7049080B2, “Process for detecting serine/threonine kinase activity” (priority 2000, dated 2006)
pKd: −log10 of the molar value. Non-standard residues stand in square brackets, D forms with d. *: point of attachment. 5‑TAMRA = CN(C)c1ccc2c(-c3ccc(C(=O)*)cc3C(=O)[O-])c3ccc(N(C)C)cc3[o+]c2c1; pY = N[C@@H](Cc1ccc(OP(=O)(O)O)cc1)C(=O)O; pT = C[C@@H](OP(=O)(O)O)[C@H](N)C(=O)O; AEEA = NCCOCCOCC(=O)O

Assays:
[1] = target: polyclonal phospho-JNK antibody NEB #9251; assay: Binding of polyclonal phospho-JNK antibody to TAMRA-labelled peptides (fluorescence polarization); parameters: species or system rabbit; details: antibody 1:20, peptide 5 nM, read-out: KD, affinity of polyclonal phospho-JNK antibody for peptide
Text: The polarization values dramatically increase when using the double-phosphorylated peptide substrate P1*^∘ in contrast to mono-phosphorylated labelled peptide P1^∘ (sequence see above).
Measurement of the Binding Affinity (KD) of Antibody NEB #9251:
This polyclonal antibody detects all three isoforms of the SAPK1/JNK proteins only when they are activated by dual phosphorylation at threonine183/tyrosine185. Binding of poly-clonal phospho-JNK antibody (at a dilution of 1:20) from NEB to TAMRA-labelled P1^∘- and P1*^∘ peptides (each 5 nM) was measured by fluorescence polarization.

NEB antibody #9251 [2] = assay: FP controls conjugate/high/low (Example 7); assay type: binding, rabbit; details: 0 h
Protocol: The following reagents have been used (the compositions of the buffers and specifications of the reagents are explained in more detail later on): Hepes buffer, MgCl2 10 mM, ATP 20 μM, P1^∘ peptide at 100 μM, NEB antibody # 9251 1:20 dilution, P1*^∘-TAMRA 5 nM, Pluronic 0.1%, MKK7 at 0, 0.005, 0.02, 0.08, 0.2, 0.5 and 2 μM.
After addition of MKK7, the enzyme reactions were performed in Nunc chambers at RT. The samples were continuously measured at different time points by Fluorescence polarization.
(§1) Bis-phosphorylated peptide P1*^∘ can be used as competitor, resulting in free labelled ligand called “low” or “negative control”. This can be seen in the following table 1.

NEB antibody #9251 [3] = assay: FP controls conjugate/high/low (Example 8); assay type: binding, rabbit; details: 0 h
Protocol: The following reagents have been used (explanations later on): Hepes buffer, MgCl2 (10 mM), ATP (20 μM), P1^∘ peptide (100 μM), polyclonal antibody NEB #9251 (1:20), P1*^∘-TAMRA (5 nM), Pluronic (0.1%), BSA (0.01%), MKK7 at (0.04, 0.08 and 0.2 μM), EDTA (10 mM) (all final conc.).
The enzyme reactions were performed in Eppendorf reaction tubes at RT. Aliquots of 20 μl were withdrawn from the reactions at different time points and mixed with 10 μl STOP solution. The stopped reactions were incubated at RT for at least 30 min and measured by Fluorescence Polarization.
as §1

MKK7 = target: T1, MKK7 (Homo sapiens, UniProt O14733); assay: Determination of Km for ATP (MKK7 phosphorylation, FP read-out); assay type: biochemical; details: MKK7 80 nM, P1° 100 μM, RT
T1 construct: purchased Upstate Biotech 14-366
T1 sequence (O14733 1-419): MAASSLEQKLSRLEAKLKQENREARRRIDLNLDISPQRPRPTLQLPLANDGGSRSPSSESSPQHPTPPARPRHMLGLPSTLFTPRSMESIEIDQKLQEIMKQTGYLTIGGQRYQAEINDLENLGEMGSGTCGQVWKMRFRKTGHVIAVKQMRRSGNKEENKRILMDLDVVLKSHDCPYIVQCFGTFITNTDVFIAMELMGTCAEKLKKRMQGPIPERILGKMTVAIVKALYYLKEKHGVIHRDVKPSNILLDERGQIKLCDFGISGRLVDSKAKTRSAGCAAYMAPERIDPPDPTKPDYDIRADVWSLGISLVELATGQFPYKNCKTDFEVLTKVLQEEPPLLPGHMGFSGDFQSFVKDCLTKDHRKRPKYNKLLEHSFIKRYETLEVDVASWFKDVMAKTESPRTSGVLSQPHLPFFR
Protocol: Efficient phosphorylation of P1^∘ peptide is dependent on the optimal ATP concentration. […] From the detected fluorescence polarization signals, the Michaelis-Menten constant (Km), reflecting the half-maximal phosphorylation rate, was determined for ATP.
Determination of Km for ATP (Read-out: Fluorescence Polarization): […]

[4] = Low: P1*°-Tamra + NEB ab (1:20) + competitor 200 nM

For “5-TAMRA-AEEA-Lys-Phe-Met-Met-pThr-Pro-pTyr-Val-Val-Thr-Arg-NH2 ({5‑TAMRA-AEEA}-KFMM[pT]P[pY]VVTR-NH2; SMILES CSCC[C@H](NC(=O)[C@H](Cc1ccccc1)NC(=O)[C@H](CCCCN)NC(=O)COCCOCCNC(=O)c1ccc(-c2c3ccc(N(C)C)cc3[o+]c3cc(N(C)C)ccc23)c(C(=O)[O-])c1)C(=O)N[C@@H](CCSC)C(=O)N[C@H](C(=O)N1CCC[C@H]1C(=O)N[C@@H](Cc1ccc(OP(=O)(O)O)cc1)C(=O)N[C@H](C(=O)N[C@H](C(=O)N[C@H](C(=O)N[C@@H](CCCNC(=N)N)C(N)=O)[C@@H](C)O)C(C)C)C(C)C)[C@@H](C)OP(=O)(O)O) [P1*^∘-TAMRA]”, the pKd [1] was 8.59, the “Fluorescence Polarization” value (NEB antibody #9251 [2]; Conjugate alone) was 39.7 mP and the “Fluorescence Polarization” value (NEB antibody #9251 [2]; High: + NEB ab (1:20)) was 139.1 mP. The “Fluorescence Polarization” value (NEB antibody #9251 [3]; Conjugate alone) was 33.2 mP and the “Fluorescence Polarization” value (NEB antibody #9251 [3]; High: + NEB ab (1:20)) was 145.7 mP.
`Nc1ncnc2c1ncn2[C@@H]1O[C@H](COP(=O)(O)OP(=O)(O)OP(=O)(O)O)[C@@H](O)[C@H]1O` [ATP] was tested, and the Vmax (MKK7) was 0.28 mP/min.
For “H-Lys-Phe-Met-Met-Thr-Pro-pTyr-Val-Val-Thr-Arg-NH2 (H-KFMMTP[pY]VVTR-NH2; SMILES CSCC[C@H](NC(=O)[C@H](Cc1ccccc1)NC(=O)[C@@H](N)CCCCN)C(=O)N[C@@H](CCSC)C(=O)N[C@H](C(=O)N1CCC[C@H]1C(=O)N[C@@H](Cc1ccc(OP(=O)(O)O)cc1)C(=O)N[C@H](C(=O)N[C@H](C(=O)N[C@H](C(=O)N[C@@H](CCCNC(=N)N)C(N)=O)[C@@H](C)O)C(C)C)C(C)C)[C@@H](C)O) [P1^∘]”, the “Fluorescence Polarization” value (NEB antibody #9251 [3]; [4]) was 71.5 mP.
In the case of “H-Lys-Phe-Met-Met-pThr-Pro-pTyr-Val-Val-Thr-Arg-NH2 (H-KFMM[pT]P[pY]VVTR-NH2; SMILES CSCC[C@H](NC(=O)[C@H](Cc1ccccc1)NC(=O)[C@@H](N)CCCCN)C(=O)N[C@@H](CCSC)C(=O)N[C@H](C(=O)N1CCC[C@H]1C(=O)N[C@@H](Cc1ccc(OP(=O)(O)O)cc1)C(=O)N[C@H](C(=O)N[C@H](C(=O)N[C@H](C(=O)N[C@@H](CCCNC(=N)N)C(N)=O)[C@@H](C)O)C(C)C)C(C)C)[C@@H](C)OP(=O)(O)O) [P1*^∘]”, the “Fluorescence Polarization” value (NEB antibody #9251 [2]; [4]) was 84.5 mP.
